In PubChem BioAssay (NCI) one finds TGI and GI50 data, which are given here for 18 molecules.

Some test systems named below: SF-295 CNS; RPMI-8226 leukemia; TK-10 renal; SF-268 CNS; 786-0 renal; OVCAR-8 ovarian; SF-539 CNS; HCT-15 colon; HL-60(TB) leukemia; HOP-92 NSCLC; MALME-3M melanoma; NCI-H522 lung.
Common to all, as to assay: inhibition of tumour cell growth, NCI panel, 48 h

Where “and” joins values, the source holds several entries; their conditions need not be identical. Equal values may be shown once.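 Grown in 96-well plates, cells were treated for 48 hours with each compound at five concentrations. Insufficient inhibition: endpoint recorded as highest concentration tested. GI50 = concentration required for 50% inhibition of growth. TGI: concentration producing complete growth inhibition.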 Where a SMILES comes first, the peptide text is derived from it. Bridges are numbered along the chain shown (N, C = ends). [ ]: non-standard residue; d: D form. Aib = CC(C)(N)C(=O)O; βAla = NCCC(=O)O

Regarding `Oc1c(Br)cc(/C=C/c2ccnc(/C=C/c3cc(Br)c(O)c(Br)c3)c2)cc1Br`, the TGI in the experiment on SF-295 CNS is over 100 µM; with RPMI-8226 leukemia, 51.6 µM; with TK-10 renal, 75 µM; in the experiment with SF-268 CNS it was over 100 µM; in the experiment on 786-0 renal it was 35.3 µM; in the experiment on OVCAR-8 ovarian, 83.9 µM. Also, the TGI with SF-539 CNS is 33 µM; in the experiment with HCT-15 colon, 73 µM; in the experiment with HL-60(TB) leukemia, 60.6 µM; in the experiment with HOP-92 NSCLC, over 100 µM.

`Cc1ccc2c(c1)C(=C(C#N)C#N)CCCS2(=O)=O`: the TGI with SF-295 CNS, with RPMI-8226 leukemia, in the experiment on TK-10 renal, with SF-268 CNS, with 786-0 renal and in the experiment on OVCAR-8 ovarian was over 100 µM throughout. Besides, the TGI in the experiment with SF-539 CNS, in the experiment with HCT-15 colon, with HL-60(TB) leukemia and in the experiment on HOP-92 NSCLC was over 100 µM in each case.

With `Cc1[nH]c(=O)nc2nc3cc(Cl)cc(Cl)c3c(NC(C)(CO)CO)c12`, the TGI in the experiment with SF-295 CNS is over 100 µM; with MALME-3M melanoma, over 100 µM; in the experiment on TK-10 renal it was 84.1 µM; in the experiment on SF-268 CNS it was over 100 µM; in the experiment on 786-0 renal, 91.6 µM; with OVCAR-8 ovarian, over 100 µM. In addition, the TGI with SF-539 CNS was over 100 µM; in the experiment with HCT-15 colon, over 100 µM; with NCI-H522 lung, over 100 µM; with HOP-92 NSCLC it was 57.7 µM.

For the molecule `Cc1c(C)c2ccc(OCC(O)COC(C)C)c(C)c2oc1=O` (stereo not given), the TGI with SF-295 CNS is over 100 µM; with MALME-3M melanoma, 30.3 µM; with RPMI-8226 leukemia it was 44.4 µM; in the experiment with TK-10 renal it was 62.3 µM; in the experiment on SF-268 CNS it was over 100 µM; in the experiment on 786-0 renal, over 10 µM. Moreover, the TGI in the experiment on OVCAR-8 ovarian is over 100 µM; in the experiment on HL-60(TB) leukemia, 60.3 µM; with NCI-H522 lung it was 45.8 µM; with HOP-92 NSCLC it was over 100 µM.

For the molecule `COc1ccc(N=c2oc3ccccc3cc2C(N)=O)cc1`, the TGI in the experiment with SF-295 CNS is 75.1 µM; with RPMI-8226 leukemia, over 100 µM; in the experiment on TK-10 renal it was 46.6 µM; with SF-268 CNS, 42.6 µM; in the experiment on 786-0 renal it was 68.8 µM; in the experiment on OVCAR-8 ovarian, over 100 µM. Besides, the TGI in the experiment on SF-539 CNS is 63.6 µM; with HCT-15 colon, over 100 µM; with HL-60(TB) leukemia, over 100 µM; in the experiment on NCI-H522 lung, 93.1 µM; with HOP-92 NSCLC, over 100 µM.

For the molecule `COC(=O)c1c([N+](=O)[O-])ncn1[C@H]1OC[C@@H](OC(C)=O)[C@@H](OC(C)=O)[C@@H]1OC(C)=O`, the TGI with SF-295 CNS, in the experiment on MALME-3M melanoma, in the experiment with TK-10 renal, with SF-268 CNS, with 786-0 renal and in the experiment with OVCAR-8 ovarian was over 100 µM in each case. The TGI in the experiment on SF-539 CNS, in the experiment with HCT-15 colon, in the experiment on HL-60(TB) leukemia, in the experiment with NCI-H522 lung and in the experiment on HOP-92 NSCLC was over 100 µM each time.

Consider `OC1(C(Sc2cc(C(F)(F)F)cc(C(F)(F)F)c2)Sc2cc(C(F)(F)F)cc(C(F)(F)F)c2)C=CCCC1` (stereo not given), for which the TGI in the experiment on SF-295 CNS turned out to be 6.39 µM; in the experiment on MALME-3M melanoma it was 8.81 µM; in the experiment on RPMI-8226 leukemia, 4.8 µM; in the experiment on TK-10 renal it was 3.8 µM; in the experiment with SF-268 CNS it was 8.81 µM; in the experiment on 786-0 renal it was 8.09 µM. In addition, the TGI in the experiment with OVCAR-8 ovarian is 7.9 µM; in the experiment on HCT-15 colon it was 4.13 µM; in the experiment on HL-60(TB) leukemia it was 3.97 µM; in the experiment with NCI-H522 lung, 5.75 µM; with HOP-92 NSCLC, 9.15 µM.

As for `CC1(C)NC(=O)C(NC(=O)C(N)CC(=O)O)CCCCNC(=O)CCNC1=O` (stereo not given) (H-DK[Aib][βAla]; lactam 2-C; configuration not given here), the TGI with SF-295 CNS, in the experiment with MALME-3M melanoma, in the experiment on RPMI-8226 leukemia, in the experiment with TK-10 renal, with SF-268 CNS and with 786-0 renal was over 100 µM each time. Besides, the TGI in the experiment on OVCAR-8 ovarian, with SF-539 CNS, in the experiment with HCT-15 colon, with NCI-H522 lung and with HOP-92 NSCLC was over 100 µM in each case.

With `CC1=C(C#N)C(=C(C#N)C#N)OC1(C)Cc1ccccc1` (stereo not given), the TGI in the experiment on SF-295 CNS is over 100 µM; in the experiment with RPMI-8226 leukemia, 96.8 µM; in the experiment with TK-10 renal, over 100 µM; in the experiment on SF-268 CNS it was over 100 µM; in the experiment on 786-0 renal, over 100 µM; in the experiment on OVCAR-8 ovarian, over 100 µM. The TGI in the experiment with SF-539 CNS was over 100 µM; in the experiment on HCT-15 colon, 83 µM; in the experiment with NCI-H522 lung it was 36.8 µM; with HOP-92 NSCLC it was 38.6 µM.

With `CC1=NN(c2nc(N)nc(CN3CCOCC3)n2)C(C)(C)C1`, the TGI with SF-295 CNS was over 100 µM; with RPMI-8226 leukemia it was over 100 µM; in the experiment with TK-10 renal, over 100 µM; in the experiment on SF-268 CNS, over 100 µM; in the experiment on 786-0 renal it was 31.2 µM; with OVCAR-8 ovarian it was over 100 µM. Also, the TGI in the experiment on SF-539 CNS is over 100 µM; in the experiment with HCT-15 colon, over 100 µM; with HL-60(TB) leukemia it was 30.1 µM; in the experiment on NCI-H522 lung it was 29.1 µM; with HOP-92 NSCLC, over 100 µM.

Turning to `CC1OC(OC2C(OC(=O)[C@]34CCC(C)(C)C[C@H]3C3=CC[C@@H]5[C@@]6(C)CC[C@H](OC7OC(C(=O)O)C(O)C(O)C7O)C(C)(C)[C@@H]6CC[C@@]5(C)[C@]3(C)C[C@H]4O)OCC(O)C2O)C(O)C(O)C1OC1OCC(O)C(O)C1O` (stereo not given in full), the TGI is 29.6 µM and 22.1 µM in the experiment on SF-295 CNS; 27.8 µM and 25.6 µM with MALME-3M melanoma; 30.4 µM and 94 µM in the experiment with RPMI-8226 leukemia; 34.6 µM and 25.4 µM in the experiment with SF-268 CNS; 28.8 µM and 26.1 µM in the experiment on 786-0 renal; 26.5 µM and 5.19 µM with OVCAR-8 ovarian. Besides, the TGI with HCT-15 colon is 31.6 µM and 33.7 µM; with HL-60(TB) leukemia, 30.5 µM and 26.9 µM; in the experiment with NCI-H522 lung, 24.4 µM; with HOP-92 NSCLC, 26.9 µM and 24.4 µM. In the experiment on OVCAR-8 ovarian, the GI50 was 13.2 µM and 2.33 µM.

As for `COc1ccccc1Nc1nc2c([nH]1)c(=O)n(C)c(=O)n2C`, the TGI in the experiment on SF-295 CNS, in the experiment with MALME-3M melanoma, in the experiment on RPMI-8226 leukemia, in the experiment on TK-10 renal, in the experiment on SF-268 CNS and in the experiment on 786-0 renal was over 10 µM throughout. Also, the TGI with OVCAR-8 ovarian, with HCT-15 colon, with HL-60(TB) leukemia and in the experiment on HOP-92 NSCLC was over 10 µM in each case.

On to `CSC12c3cc(C)n(-c4ccc([N+](=O)[O-])cc4)c3CC(C)(C)CN1C(=O)C2Oc1ccccc1` (stereo not given), for which the TGI with SF-295 CNS, in the experiment with RPMI-8226 leukemia, in the experiment with 786-0 renal, with OVCAR-8 ovarian, in the experiment with SF-539 CNS and with HCT-15 colon was over 100 µM in each case. Further, the TGI with HOP-92 NSCLC is over 100 µM.

As to `CCOC1OC(COC(=O)C(C)(C)C)C(O)CC1n1cc(C)c(=O)[nH]c1=O` (stereo not given), the TGI in the experiment on SF-295 CNS, in the experiment on MALME-3M melanoma, with RPMI-8226 leukemia, in the experiment on TK-10 renal, in the experiment on SF-268 CNS and with 786-0 renal was over 100 µM each time. Further, the TGI in the experiment with OVCAR-8 ovarian, with SF-539 CNS, in the experiment with HCT-15 colon, in the experiment with NCI-H522 lung and in the experiment on HOP-92 NSCLC was over 100 µM throughout.

As for `NC(=O)C1CCCN1C(=O)C(Cc1cnc[nH]1)NC(=O)C1CCCC1` (stereo not given), the TGI in the experiment with SF-295 CNS, in the experiment on MALME-3M melanoma, in the experiment on RPMI-8226 leukemia, in the experiment on TK-10 renal, with 786-0 renal and in the experiment on OVCAR-8 ovarian was over 100 µM throughout. Also, the TGI with HCT-15 colon, in the experiment on HL-60(TB) leukemia, in the experiment on NCI-H522 lung and in the experiment with HOP-92 NSCLC was over 100 µM throughout.

As for `N#Cc1ccc(C(O)C(F)(F)c2nc3ccccc3o2)cc1` (stereo not given), the TGI with SF-295 CNS, in the experiment on RPMI-8226 leukemia, with TK-10 renal, in the experiment on SF-268 CNS, with 786-0 renal and with OVCAR-8 ovarian was over 100 µM throughout. For the same molecule, the TGI in the experiment on SF-539 CNS, in the experiment with HCT-15 colon, in the experiment with HL-60(TB) leukemia and with HOP-92 NSCLC was over 100 µM throughout.

Consider `COc1ccc2c(c1)Cc1c(NCCN(C)C)ccc(C(=O)NCCCN(C)CCCNC(=O)c3ccc(NCCN(C)C)c4c3Nc3ccc(OC)cc3C4)c1N2`, for which the TGI in the experiment on SF-295 CNS turned out to be 3.52 µM; in the experiment on MALME-3M melanoma, 0.209 µM; in the experiment with TK-10 renal, 4.88 µM; with SF-268 CNS, 0.327 µM; with 786-0 renal it was 0.985 µM; in the experiment with OVCAR-8 ovarian it was 2.86 µM. The TGI is 2.24 µM with SF-539 CNS; over 74.3 µM in the experiment with HCT-15 colon; 1.17 µM in the experiment on HL-60(TB) leukemia; 0.0514 µM in the experiment on NCI-H522 lung; 2.79 µM with HOP-92 NSCLC.

On to `N#CC(c1ccccc1)N(CCCCCCN(C(=O)c1ccccc1)C(C#N)c1ccccc1)C(=O)c1ccccc1` (stereo not given), for which the TGI is over 100 µM with SF-295 CNS; over 100 µM with MALME-3M melanoma; 62.6 µM with TK-10 renal; over 100 µM in the experiment on SF-268 CNS; over 100 µM in the experiment with 786-0 renal; over 100 µM with OVCAR-8 ovarian. Also, the TGI with SF-539 CNS was over 100 µM; with HCT-15 colon it was over 100 µM; in the experiment on HL-60(TB) leukemia it was over 100 µM; with HOP-92 NSCLC, 50.3 µM.
